# According to US8623429B2, “Stabilized anthocyanin compositions” (Omnica GmbH, priority 2007, dated 2014):
# Assays:
# Format in all cases: physicochemical
# [1] = Example 9: stability of bilberry extract anthocyanosides, 4 hours at 37° C., pH 7.0, with/without L-cysteine; settings: for Peak Area, Fresh solution: bilberry extract 60 mg in buffer pH 7.0, fresh sample; for % left, L-cysteine 20 mg / Peak Area, L-cysteine 20 mg / % left, Blank / Peak Area, Blank: pH 7.0, 37° C., 4 hours; for % left, Blank / Peak Area, Blank: unprotected
# Protocol: Sample a) 60 mg bilberry extract [37% anthocyanosides] (0.048 mmol anthocyanosides expressed as cyanidin-3-O-glucoside) were added to a 100 ml flask with 60 ml sodium phosphate buffer (5% [w/w], pH=7.0), and stirred until dissolution was complete. A 1 ml sample was taken immediately and acidified with formic acid to pH=1.0 and analyzed by HPLC for the content of anthocyanosides (Fresh Sample). The remaining solution was kept for 4 hours at 37° C. (water bath) with stirring. Thereafter another sample (Blank sample), representing unprotected degradation, was taken and acidified.
# Sample b) 20 mg L-cysteine […] were added to a 100 ml flask with 60 ml sodium phosphate buffer (5% [w/w], pH=7.0) and stirred until dissolution was complete. 60 mg bilberry extract [37% anthocyanosides] (0.048 mmol expressed as cyanidin-3-O-glucoside) were then added to the flask and stir to fully dissolve, then kept for 4 hours at 37° C. (water bath) with stirring.
# After 4 hours, samples were taken and acidified immediately with formic acid to pH=1.0 and analyzed by HPLC for the content of anthocyanosides. Degradation is expressed as decrease in peak area of individual peaks (calculated as % left after 4 hours).
# Samples were prepared as outlined above in the HPLC Analytical Method. Test stability samples were immediately acidified (to block degradation) and injected undiluted following the detailed description provided below.
# [2] = Example 5: degradation over time of black currant anthocyanosides at 37° C., pH 7.0, with/without GSH (HPLC); settings: pH 7.0, 37° C.; for %-residual anthocyanosides (% left): 4 hours
# Protocol: Sample a) 60 mg black currant extract [35% anthocyanosides] (0.037 mmol anthocyanosides expressed as cyanidin-3-O-rutinoside) were added to a 100 ml flask, filled to volume with sodium phosphate buffer (5% [w/w], pH=7.0) and stirred until dissolution was complete. A 1 ml sample was taken immediately, acidified with formic acid to pH=1.0 and analyzed by HPLC for the content of anthocyanosides. The remaining solution was kept at 37° C. (water bath) with stirring and 1 ml samples (Blank Samples), representing unprotected degradation, were taken every 15 minutes. The samples were analyzed for selected anthocyanosides by HPLC.
# (§1) Sample b) 20 mg reduced L-glutathione (0.065 mmol) were added to a 100 ml flask with 60 ml sodium phosphate buffer (5% [w/w], pH=7.0) and stirred until dissolution was complete. 60 mg black currant extract [35% anthocyanosides] (0.037 mmol anthocyanosides expressed as cyanidin-3-O-rutinoside) were added, the flask was filled to volume with sodium phosphate buffer (5% [w/w], pH=7.0) and kept for at 37° C. (water bath) with stirring. Every 15 minutes 1 ml samples were taken and analyzed for selected anthocyanosides by HPLC.
# (§2) Samples were prepared as outlined below in HPLC Analytical Method. Test stability samples were immediately acidified (to block degradation) and injected undiluted following the detailed description provided below.
# [3] = Example 3: stability of black currant extract anthocyanosides, 4 hours at 37° C., pH 7.0, with/without DHLA, GSH or L-cysteine (HPLC); settings: for Peak Area, Fresh solution: black currant extract 60 mg/100 ml buffer pH 7.0, fresh sample; for % left, DHLA 20 mg / % left, GSH 20 mg / % left, L-cysteine 20 mg / Peak Area, DHLA 20 mg / Peak Area, GSH 20 mg / Peak Area, L-cysteine 20 mg / % left, Blank / Peak Area, Blank: pH 7.0, 37° C., 4 hours; for % left, Blank / Peak Area, Blank: unprotected
# Protocol: Sample a) 60 mg black currant extract [35% anthocyanosides] (0.037 mmol anthocyanosides expressed as cyanidin-3-O-rutinoside) were added to a 100 ml flask and filled to volume with sodium phosphate buffer (5% [w/w], pH=7.0) and stirred until dissolution was complete. A 1 ml sample was taken immediately, acidified with formic acid to pH=1.0 and analyzed by HPLC for the content of anthocyanosides (Fresh Sample). The remaining solution was kept for 4 hours at 37° C. (water bath) with stirring. Thereafter samples (Blank sample), representing unprotected degradation, were taken and acidified.
# as §1, with “then added and” for “added,”, “for 4 hours” for “for”, “stirring.” for “stirring. Every 15 minutes 1 ml samples were taken and analyzed for selected anthocyanosides by HPLC.”
# (§3) Sample c) 20 mg dihydrolipoic acid (0.096 mmol) were added to a 100 ml flask with 60 ml sodium phosphate buffer (5% [w/w], pH=7.0) and stirred until dissolution was completed. 60 mg black currant extract [35% anthocyanosides] (0.037 mmol anthocyanosides expressed as cyanidin-3-O-rutinoside) were added to the flask, filled to volume with sodium phosphate buffer (5% [w/w], pH=7.0) and kept for 4 hours at 37° C. (water bath) with stirring.
# as §3, with “d)” for “c)”, “L-cysteine” for “dihydrolipoic”, “(0.165” for “(0.096”, “complete.” for “completed.”
# After 4 hours samples were taken, acidified immediately with formic acid to pH=1.0 and analyzed by HPLC for the content of anthocyanosides. Degradation is expressed as decrease in peak area of individual peaks (calculated as % left after 4 hours).
# as §2
# HPLC Analytical Method (Materials, Instruments and Methods): […]
# [4] = Example 1: stability of bilberry extract anthocyanosides, 4 hours at 37° C., pH 7.0, with/without DHLA or GSH (HPLC); settings: for % left, GSH (4 hours) / Peak Area, GSH (4 hours): 20 mg reduced L-glutathione; for % left, GSH (4 hours) / Peak Area, GSH (4 hours) / % left, DHLA (4 hours) / Peak Area, DHLA (4 hours) / % left, Blank (4 hours) / Peak Area, Blank (4 hours): pH 7.0, 37° C.; for % left, DHLA (4 hours) / Peak Area, DHLA (4 hours): 30 mg dihydrolipoic acid; for Peak Area, Fresh (0 hours): bilberry extract 60 mg/100 ml sodium phosphate buffer pH 7.0, fresh sample; for % left, Blank (4 hours) / Peak Area, Blank (4 hours): unprotected
# Protocol: (0.048 mmol anthocyanosides expressed as cyanidin-3-O-glucoside) were added to a 100 ml flask and filled to volume with sodium phosphate buffer (5% [w/w], pH=7.0), and stirred until dissolution was complete. A 1 ml sample was taken immediately and acidified with formic acid to pH=1.0 and analyzed by HPLC for the content of anthocyanosides (Fresh Sample). The remaining solution was kept for 4 hours at 37° C. (water bath) with stirring. Thereafter another sample (Blank sample), representing unprotected degradation, was taken and acidified.
# (0.048 mmol expressed as cyanidin-3-O-glucoside) were then added and the flask was filled to volume with sodium phosphate buffer (5% [w/w], pH=7.0) and kept for 4 hours at 37° C. (water bath) with stirring.
# Quantitation: External standardization based on linear regression analysis. The response factors of all anthocyanosides separated is quantitified against cyanidin-3-O-glucoside.
# Test solutions from incubation experiments (with/without cells and with/without stabilizing agents) were used for analysis after stabilization of anthocyanosides with formic acid. Samples were cleared by filtration prior to injection on to HPLC-system.
# [5] = GSH protected sample (20 mg), 0:00 h
# [6] = GSH protected sample (20 mg), 0:15 h
# [7] = GSH protected sample (20 mg), 0:45 h
# [8] = GSH protected sample (20 mg), 1:00 h
# [9] = GSH protected sample (20 mg), 1:15 h
# [10] = GSH protected sample (20 mg), 1:45 h
# [11] = GSH protected sample (20 mg), 2:00 h
# [12] = GSH protected sample (20 mg), 2:15 h
# [13] = GSH protected sample (20 mg), 2:45 h
# [14] = GSH protected sample (20 mg), 3:00 h
# [15] = GSH protected sample (20 mg), 3:15 h
# [16] = GSH protected sample (20 mg), 3:45 h
# [17] = GSH protected sample (20 mg), 4:00 h
# [18] = GSH protected sample (20 mg), 4:15 h
compound,measurement,setting,value
"OC[C@H]1O[C@@H](Oc2cc3c(O)cc(O)cc3[o+]c2-c2ccc(O)c(O)c2)[C@H](O)[C@@H](O)[C@@H]1O [Cn-3O-Glc, Cyanidin 3-o-glucoside]","Peak Area, Fresh solution",[1],987.9
same,"% left, L-cysteine 20 mg",[1],80.7%
same,"Peak Area, L-cysteine 20 mg",[1],797.5
same,"% left, Blank",[1],41.5%
same,"Peak Area, Blank",[1],410.3
same,Peak Area,"[2]; Blank sample, 0:00 h",491.1
same,Peak Area,"[2]; Blank sample, 0:15 h",368.9
same,Peak Area,"[2]; Blank sample, 0:30 h",361.9
same,Peak Area,"[2]; Blank sample, 0:45 h",321.0
same,Peak Area,"[2]; Blank sample, 1:00 h",312.0
same,Peak Area,"[2]; Blank sample, 1:30 h",293.4
same,Peak Area,"[2]; Blank sample, 1:45 h",283.8
same,Peak Area,"[2]; Blank sample, 2:00 h",256.7
same,Peak Area,"[2]; Blank sample, 2:15 h",250.3
same,Peak Area,"[2]; Blank sample, 2:30 h",243.9
same,Peak Area,"[2]; Blank sample, 2:45 h",226.8
same,Peak Area,"[2]; Blank sample, 3:00 h",213.7
same,Peak Area,"[2]; Blank sample, 3:15 h",204.9
same,Peak Area,"[2]; Blank sample, 3:30 h",180.1
same,Peak Area,"[2]; Blank sample, 3:45 h",181.6
same,Peak Area,"[2]; Blank sample, 4:00 h",154.0
same,%-residual anthocyanosides (% left),[2]; Blank,31%
same,Peak Area,[2]; [5],480.6
same,Peak Area,[2]; [6],426.1
same,Peak Area,[2]; [7],418.6
same,Peak Area,[2]; [8],423.8
same,Peak Area,[2]; [9],415.3
same,Peak Area,[2]; [10],376.4
same,Peak Area,[2]; [11],387.6
same,Peak Area,[2]; [12],356.5
same,Peak Area,[2]; [13],337.5
same,Peak Area,[2]; [14],349.5
same,Peak Area,[2]; [15],325.6
same,Peak Area,[2]; [16],312.6
same,Peak Area,[2]; [17],315.7
same,Peak Area,[2]; [18],300.3
same,%-residual anthocyanosides (% left),[2]; GSH-protected,66%
same,"Peak Area, Fresh solution",[3],491.1
same,"% left, DHLA 20 mg",[3],51.7%
same,"% left, GSH 20 mg",[3],64.3%
same,"% left, L-cysteine 20 mg",[3],38.0%
same,"Peak Area, DHLA 20 mg",[3],254.1
same,"Peak Area, GSH 20 mg",[3],315.7
same,"Peak Area, L-cysteine 20 mg",[3],186.8
same,"% left, Blank",[3],31.4%
same,"Peak Area, Blank",[3],154.0
same,"% left, GSH (4 hours)",[4],80.7%
same,"Peak Area, GSH (4 hours)",[4],797.5
same,"% left, DHLA (4 hours)",[4],67.9%
same,"Peak Area, DHLA (4 hours)",[4],671.1
same,"Peak Area, Fresh (0 hours)",[4],987.9
same,"% left, Blank (4 hours)",[4],41.5%
same,"Peak Area, Blank (4 hours)",[4],410.3
"OC[C@H]1O[C@@H](Oc2cc3c(O)cc(O)cc3[o+]c2-c2cc(O)c(O)c(O)c2)[C@H](O)[C@@H](O)[C@@H]1O [Dp-3O-Glc, Delphinidin 3-o-glucoside]","Peak Area, Fresh solution",[1],726.6
same,"% left, L-cysteine 20 mg",[1],48.3%
same,"Peak Area, L-cysteine 20 mg",[1],350.8
same,"% left, Blank",[1],6.4%
same,"Peak Area, Blank",[1],46.3
same,Peak Area,"[2]; Blank sample, 0:00 h",1480.7
same,Peak Area,"[2]; Blank sample, 0:15 h",969.6
same,Peak Area,"[2]; Blank sample, 0:30 h",907.9
same,Peak Area,"[2]; Blank sample, 0:45 h",745.2
same,Peak Area,"[2]; Blank sample, 1:00 h",702.1
same,Peak Area,"[2]; Blank sample, 1:30 h",605.4
same,Peak Area,"[2]; Blank sample, 1:45 h",599.9
same,Peak Area,"[2]; Blank sample, 2:00 h",465.1
same,Peak Area,"[2]; Blank sample, 2:15 h",449.8
same,Peak Area,"[2]; Blank sample, 2:30 h",394.0
same,Peak Area,"[2]; Blank sample, 2:45 h",362.7
same,Peak Area,"[2]; Blank sample, 3:00 h",304.8
same,Peak Area,"[2]; Blank sample, 3:15 h",285.1
same,Peak Area,"[2]; Blank sample, 3:30 h",208.8
same,Peak Area,"[2]; Blank sample, 3:45 h",214.5
same,Peak Area,"[2]; Blank sample, 4:00 h",140.8
same,%-residual anthocyanosides (% left),[2]; Blank,10%
same,Peak Area,[2]; [5],1464.0
same,Peak Area,[2]; [6],1280.4
same,Peak Area,[2]; [7],1209.3
same,Peak Area,[2]; [8],1219.0
same,Peak Area,[2]; [9],1178.1
same,Peak Area,[2]; [10],1051.8
same,Peak Area,[2]; [11],1077.0
same,Peak Area,[2]; [12],981.9
same,Peak Area,[2]; [13],876.8
same,Peak Area,[2]; [14],917.2
same,Peak Area,[2]; [15],812.5
same,Peak Area,[2]; [16],742.7
same,Peak Area,[2]; [17],745.6
same,Peak Area,[2]; [18],682.0
same,%-residual anthocyanosides (% left),[2]; GSH-protected,51%
same,"Peak Area, Fresh solution",[3],1481
same,"% left, DHLA 20 mg",[3],52.0%
same,"% left, GSH 20 mg",[3],50.4%
same,"% left, L-cysteine 20 mg",[3],36.7%
same,"Peak Area, DHLA 20 mg",[3],770.7
same,"Peak Area, GSH 20 mg",[3],745.6
same,"Peak Area, L-cysteine 20 mg",[3],543.0
same,"% left, Blank",[3],9.5%
same,"Peak Area, Blank",[3],140.8
same,"% left, GSH (4 hours)",[4],48.3%
same,"Peak Area, GSH (4 hours)",[4],350.8
same,"% left, DHLA (4 hours)",[4],57.1%
same,"Peak Area, DHLA (4 hours)",[4],414.8
same,"Peak Area, Fresh (0 hours)",[4],726.6
same,"% left, Blank (4 hours)",[4],6.4%
same,"Peak Area, Blank (4 hours)",[4],46.3
